Results as given in patent US5342842A, “Pyrimidone derivatives and analogs in the treatment of asthma or certain skin disorders” (Pfizer Inc., priority 1992, dated 1994).

Tests used:
[1] = test system: Eosinophil Migration into Sensitized Lung Tissue; assay: Inhibition of eosinophil migration into sensitized lung tissue challenged with antigen in guinea pigs (specific EPO response in lung lavage); format: in vivo, guinea pig; settings: Cavia porcellus, po, P.O., guinea pigs sensitized with anti-OA IgG1, ovalbumin aerosol challenge, lavage after 18 hours
Protocol: Normal Hartley guinea pigs (300-350 grams) delivered from Charles River Laboratories were housed 5-7 days before sensitization. Guinea pigs were then sensitized with 0.5 mg/kg anti-OA IgG1 or saline as control. After 48-72 hours, guinea pigs were dosed P.O. in groups of six animals each with compounds at up to 32 mg/kg using 2% Tween 80 as vehicle. After 1-1.5 hours the animals were injected i.p. with 5 mg/kg pyrilamine. Thirty minutes following pyrilamine administration, animals were exposed to 10 minutes of a 0.1% ovalbumin (OA) aerosol followed by a 15 minute cloud decay period in a Tri-R Airborne Infection Apparatus (Compression air flow =20 L/min, main air flow =8.4 L/min). Guinea pigs were removed from the apparatus and caged for 18 hours prior to sacrifice and the following lung lavage procedure. […]
The aliquoted sample with Triton was diluted with 1 ml PBS/0.1% Triton buffer (pH 7.0). […] The O.D. of the mixture was measured at 490 nm, with background O.D. (blank tube) subtracted out.
Duplicate O.D. readings were averaged to obtain a single value for each animal. Average O.D. ± standard error is calculated using the six obtained values within each group of animals. Specific EPO response due to antigen challenge is calculated by: [formula] Percent inhibition of specific EPO response due to drug pretreatment is calculated by: [formula]

human PDE [2] = assay: Inhibition of PDE in intact human peripheral blood leukocyte preparation (human PDE assays, Dr. Hanifin); format: cell-based
Description: (§1) See Grewe et al., J. Allergy Clin. Immunol., v. 70, pp. 452-457, 1982. […] Dr. Hanifin has a source of human PDE isolated from mononuclear leukocyte. They were approached and readily agreed to test 5-[3-(exo-bicyclo[2.2.1]hept-2-yloxy)-4-methoxyphenyl]-3,4,5,6-tetrahydropyrimidin-2(1H)-one in their human PDE assays (see Cooper et al., cited above).

human PDE [3] = assay: Inhibition of PDE in leukocyte homogenate preparation (human PDE assays, Dr. Hanifin); format: biochemical
Description: as §1

[4] = test system: antigen-induced skin edema; assay: Inhibition of skin edema in guinea pigs sensitized to ovalbumin; format: in vivo, guinea pig; settings: 32 mg/Kg oral
Protocol: Four guinea pigs (Hartley, male, 350-400 g) were sensitized with anti-ovalbumin IgG1 antibody. Two guinea pigs were orally dosed with 32 mg/Kg of the test compound and two other guinea pigs were dosed with vehicle (2% Tween-80). One-hour after dosing, each guinea pig was injected intraveneously with 1 ml of Evan Blue (7 mg/ml) and then his skin was challenged intradermally with 0.1 ml of ovalbumin (0.1%) or PBS. Twenty minutes after challenge, the skin was removed and skin edematous site (circular blue spots at challenge sites) was examined visually.

[5] = biological target: Pulmonary Phosphodiesterase (PDEIV); assay: Inhibition of pulmonary phosphodiesterase (PDEIV) from guinea pig lung, [3H]cAMP hydrolysis; format: biochemical; settings: 1 μM [3H]-cAMP, 37° C., 10 minutes, 1% DMSO, read-out: IC50, concentration which inhibits 50% of specific hydrolysis of [3H]cAMP to [3H]5' AMP
Protocol: Lung tissue from guinea pigs was placed in a homogenization buffer solution (20 mM Bistris, 5 mM 2-mercaptoethanol, 2 mM benzamidine, 2 mM EDTA, 50 mM sodium acetate, pH 6.5) at a concentration of 10 ml/gm of tissue. The tissue was homogenized using a Tekmar Tissumizer at full speed for 10 seconds. Phenylmethylsulfonyl fluoride (PMSF, 50 mM in 2-propanol) was added to the buffer immediately prior to homogenization to give a final PMSF concentration of 50μM. The homogenate was centrifuged at 12,000×g for 10 minutes at 4° C. The supernatant was filtered through gauze and glass wool and then applied to a 17×1.5 cm column of DEAE-Sepharose CL-6B, pre-equilibrated with homogenization buffer, at 4° C. A flow rate of 1 ml/min was used. After the supernatant had passed through the column, the column is washed with a volume of homogenization buffer at least two times that of the supernatant. […] Fractions were saved based on specific PDEIV activity, determined by [^3 H]cAMP hydrolysis and the ability of a […]. […]
The reaction tubes were shaken and placed in a water bath (37° C.) for 10 minutes, at which time the reaction was stopped by placing the tubes in a boiling water bath for 2 minutes. […] After vortexing, 1 ml of the elution was added to 3 ml Atomlight scintillation fluid in an appropriate vial, vortexed, and counted for [^3 H].
Percent inhibition is determined by the formula: [formula] […]

IC50 (human PDE [2]; intact human peripheral blood leukocytes): 300 nM
IC50 (human PDE [3]; human leukocyte homogenate preparation): 200 nM
IC50 [5]: 500 nM
Structure (SMILES): COc1ccc(C2CNC(=O)NC2)cc1O[C@@H]1C[C@H]2CC[C@@H]1C2 (relative stereo) [5-[3-(exo-bicyclo[2.2.1]hept-2-yloxy)-4-methoxyphenyl]-3,4,5,6-tetrahydropyrimidin-2(1H)-one]
ED50 [1]: 10 mg/kg
potency in inhibiting PDE compared to Ro-20-1724 (human PDE [2]; intact human peripheral blood leukocyte preparation, compared to Ro-20-1724): even greater potency than Ro-20-1724
potency in inhibiting PDE compared to Ro-20-1724 (human PDE [3]; leukocyte homogenate preparation, compared to Ro-20-1724): even greater potency than Ro-20-1724
intensity and area of blue spots at antigen-challenged skin sites as compared to vehicle-dosed animals ([4]; two guinea pigs, intradermal ovalbumin (0.1%), 20 minutes after challenge, visual examination): markedly reduced
effectiveness against antigen-induced skin edema in guinea pigs ([4]; conclusion of the test): effective against antigen-induced skin edema in guinea pigs
